This note sets out measurements from patent publication US11254668B2, “Pyrazolo[1,5-A]pyrazin-4-yl and related derivatives” (Pfizer Inc., priority 2017, dated 2022).

pIC50: −log10 of the molar value.

Holding throughout (type): biochemical
For one experiment, the target named is JAK1 (Homo sapiens (Human), UniProt P23458). The experiment is described as follows: JAK Caliper Enzyme Assay at 1 mM ATP, JAK1. The procedure, abridged:
(§1)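 Recombinant human kinase domains phosphorylated a fluorescent synthetic peptide at room temperature, with enzyme level and time tuned to 20% to 30% conversion; EDTA stop buffer ended reactions. Mobility-shift separation gave percent product from peak heights, normalised to DMSO and positive controls, and IC50s came from concentration–effect curves.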

Another experiment concerns the target TYK2 (Homo sapiens (Human), UniProt P29597). The experiment is described as follows: JAK Caliper Enzyme Assay at 1 mM ATP, TYK2. The procedure, abridged: (§2)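 Read-out is Caliper LabChip mobility-shift separation of phosphorylated from unphosphorylated fluorescent peptide after EDTA termination. Each JAK kinase domain (human, recombinant) runs at 1 mM ATP at room temperature, adjusted for 20–30% turnover. Inhibition is normalized to DMSO and positive-control wells and plotted against concentration.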

The next experiment concerns the target JAK2 (Homo sapiens (Human), UniProt O60674). The experiment is described as follows: JAK Caliper Enzyme Assay at 1 mM ATP, JAK2. In outline: as §2
A further experiment concerns the target JAK3 (Homo sapiens (Human), UniProt P52333). The experiment is described as follows: JAK Caliper Enzyme Assay at 1 mM ATP, JAK3. In outline:
as §1

JAK2, sequence (O60674 849-1124): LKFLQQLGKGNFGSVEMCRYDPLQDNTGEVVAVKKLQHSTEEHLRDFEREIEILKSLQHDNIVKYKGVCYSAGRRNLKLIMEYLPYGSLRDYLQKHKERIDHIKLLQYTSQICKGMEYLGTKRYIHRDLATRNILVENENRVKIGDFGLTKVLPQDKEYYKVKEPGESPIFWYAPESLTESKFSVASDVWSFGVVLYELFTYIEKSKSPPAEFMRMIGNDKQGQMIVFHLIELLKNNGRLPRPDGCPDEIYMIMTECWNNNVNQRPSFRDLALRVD
JAK3, sequence (P52333 822-1111): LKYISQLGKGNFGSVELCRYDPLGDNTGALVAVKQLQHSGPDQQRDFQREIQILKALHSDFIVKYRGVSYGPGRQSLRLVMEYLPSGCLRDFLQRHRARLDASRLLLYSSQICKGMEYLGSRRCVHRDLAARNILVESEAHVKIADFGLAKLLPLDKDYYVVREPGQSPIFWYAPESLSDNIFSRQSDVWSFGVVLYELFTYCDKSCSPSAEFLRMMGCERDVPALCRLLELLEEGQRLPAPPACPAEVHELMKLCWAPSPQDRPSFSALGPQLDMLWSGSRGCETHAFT
JAK1, sequence (P23458 875-1153): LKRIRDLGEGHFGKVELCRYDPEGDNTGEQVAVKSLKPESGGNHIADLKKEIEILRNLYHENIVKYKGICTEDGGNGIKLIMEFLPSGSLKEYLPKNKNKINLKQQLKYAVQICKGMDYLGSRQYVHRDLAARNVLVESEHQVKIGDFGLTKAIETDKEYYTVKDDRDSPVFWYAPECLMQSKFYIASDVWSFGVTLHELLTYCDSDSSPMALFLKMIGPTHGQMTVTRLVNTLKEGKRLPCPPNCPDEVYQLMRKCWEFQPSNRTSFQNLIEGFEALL
TYK2, sequence (P29597 897-1176): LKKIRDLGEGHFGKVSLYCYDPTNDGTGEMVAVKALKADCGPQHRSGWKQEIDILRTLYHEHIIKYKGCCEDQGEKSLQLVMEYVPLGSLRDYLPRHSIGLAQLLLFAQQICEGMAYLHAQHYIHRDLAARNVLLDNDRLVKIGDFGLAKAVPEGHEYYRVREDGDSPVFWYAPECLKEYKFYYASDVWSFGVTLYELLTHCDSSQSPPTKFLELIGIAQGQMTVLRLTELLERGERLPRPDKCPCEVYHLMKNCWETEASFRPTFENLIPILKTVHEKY

With `N#CC[C@]1(n2ccc(-c3nc(-c4ccc(N)cn4)cc4ncccc34)n2)C[C@@H](C#N)C1` [Example 190, cis-3-{3-[7-(5-aminopyridin-2-yl)-1,6-naphthyridin-5-yl]-1H-pyrazol-1-yl}-3-(cyanomethyl)cyclobutanecarbonitrile], the pIC50 on JAK1 is 5.88; on TYK2 it was 7.26; on JAK2, 6.22; on JAK3, less than 5.00.
As to `CS(=O)(=O)N1CC(CC#N)(n2ccc(-c3nc(-c4cccnc4N)cc4ncccc34)n2)C1` [Example 191], the pIC50 on JAK1 was 5.30; at TYK2 it was 7.12; on JAK2 it was 6.03; on JAK3, less than 5.00.
Turning to `N#CCC1(n2ccc(-c3nc(-c4ccc(N)nc4)cc4ncccc34)n2)CN(CC(F)(F)F)C1` [Example 192], the pIC50 on JAK1 is 6.02; on TYK2 it was 7.17; at JAK2 it was 6.08; on JAK3 it was less than 5.00.
Regarding `CS(=O)(=O)N1CC(CC#N)(n2ccc(-c3nc(-c4cncc(N)c4)cc4ncccc34)n2)C1` [Example 193], the pIC50 on JAK1 is 5.25; on TYK2, 6.83; at JAK2, 5.78; on JAK3, less than 5.00.
Consider `CS(=O)(=O)N1CC(CC#N)(n2ccc(-c3nc(-c4ccc(N)nc4)cc4ncccc34)n2)C1` [Example 194], for which the negative-log IC50 (pIC50) at JAK1 is 6.07; on TYK2, 7.35; at JAK2, 6.36; at JAK3, less than 5.00.
On the same counts, the results for `N#CC[C@]1(n2ccc(-c3nc(-c4ccc(N)nc4)cc4ncccc34)n2)C[C@@H](C#N)C1` [Example 195, cis-3-{3-[7-(6-aminopyridin-3-yl)-1,6-naphthyridin-5-yl]-1H-pyrazol-1-yl}-3-(cyanomethyl)cyclobutanecarbonitrile] are 7.30, 8.05, 7.51 and 5.69.
As for `N#CC[C@]1(n2ccc(-c3nc(-c4ccc(N)nc4)cc4ncccc34)n2)C[C@H](C#N)C1` [Example 196, trans-3-{3-[7-(6-aminopyridin-3-yl)-1,6-naphthyridin-5-yl]-1H-pyrazol-1-yl}-3-(cyanomethyl)cyclobutanecarbonitrile], the pIC50 on JAK1 is 6.31; on TYK2, 7.35; at JAK2 it was 6.63; on JAK3, less than 5.00.
In the case of `N#CCC1(n2ccc(-c3nc(-c4ccnc(N)c4)cc4ncccc34)n2)CN(CC(F)(F)F)C1` [Example 197], the negative-log IC50 (pIC50) on JAK1 was 6.18; at TYK2 it was 7.43; at JAK2 it was 6.16; on JAK3 it was less than 5.00.
In the same order, the values of `N#CC[C@]1(n2ccc(-c3nc(-c4ccnc(N)c4)cc4ncccc34)n2)C[C@@H](C#N)C1` [Example 198, cis-3-{3-[7-(2-aminopyridin-4-yl)-1,6-naphthyridin-5-yl]-1H-pyrazol-1-yl}-3-(cyanomethyl)cyclobutanecarbonitrile] are 7.41, 8.15, 7.49 and 5.71.
Turning to `N#CCC1(n2ccc(-c3nc(-c4ccnc(N)c4)cc4ncccc34)n2)CC(C#N)C1` (stereo not drawn) [Example 199, trans-3-{3-[7-(2-aminopyridin-4-yl)-1,6-naphthyridin-5-yl]-1H-pyrazol-1-yl}-3-(cyanomethyl)cyclobutanecarbonitrile], the negative logarithm of the IC50 (pIC50) on JAK1 is 6.47; on TYK2, 7.70; at JAK2 it was 6.70; at JAK3 it was less than 5.00.
On the same counts, the results for `C[C@]1(C#N)C[C@](CC#N)(n2ccc(-c3nc(-c4ccnc(N)c4)cc4ncccc34)n2)C1` [Example 200, trans-3-{3-[7-(2-aminopyridin-4-yl)-1,6-naphthyridin-5-yl]-1H-pyrazol-1-yl}-3-(cyanomethyl)-1-methylcyclobutanecarbonitrile] are 5.49, 6.24, 5.53 and less than 5.00.
Consider `C[C@]1(C#N)C[C@@](CC#N)(n2ccc(-c3nc(-c4ccnc(N)c4)cc4ncccc34)n2)C1` [Example 201, cis-3-{3-[7-(2-aminopyridin-4-yl)-1,6-naphthyridin-5-yl]-1H-pyrazol-1-yl}-3-(cyanomethyl)-1-methylcyclobutanecarbonitrile], for which the pIC50 on JAK1 was 6.51; at TYK2 it was 7.51; on JAK2 it was 6.75; at JAK3, less than 5.00.
Take `CCOC(=O)Nc1cncc(-c2cc3ncccc3c(-c3ccn(C4(CC#N)CN(S(C)(=O)=O)C4)n3)n2)c1` [Example 202, ethyl [5-(5-{1-[3-(cyanomethyl)-1-(methylsulfonyl)azetidin-3-yl]-1H-pyrazol-3-yl}-1,6-naphthyridin-7-yl)pyridin-3-yl]carbamate]: the negative-log IC50 (pIC50) at JAK1 was less than 5.00; at TYK2, 6.87; on JAK2, less than 5.00; on JAK3 it was less than 5.00.
For the molecule `CN(C)c1ccc(-c2cc3ncccc3c(-c3ccn(C4(CC#N)CN(S(C)(=O)=O)C4)n3)n2)cn1` [Example 203], the pIC50 was 6.58 on JAK1, 7.85 at TYK2, 7.07 on JAK2 and less than 5.00 at JAK3.
On to `CS(=O)(=O)Nc1cncc(-c2cc3ncccc3c(-c3ccn(C4(CC#N)CN(S(C)(=O)=O)C4)n3)n2)c1` [Example 204, N-[5-(5-{1-[3-(cyanomethyl)-1-(methylsulfonyl)azetidin-3-yl]-1H-pyrazol-3-yl}-1,6-naphthyridin-7-yl)pyridin-3-yl]methanesulfonamide], for which the negative-log IC50 (pIC50) on JAK1 was less than 5.00; at TYK2 it was 6.10; on JAK2, 5.17; at JAK3, less than 5.00.
Regarding `CS(=O)(=O)Nc1ccc(-c2cc3ncccc3c(-c3ccn(C4(CC#N)CN(S(C)(=O)=O)C4)n3)n2)cn1` [Example 205, N-[5-(5-{1-[3-(cyanomethyl)-1-(methylsulfonyl)azetidin-3-yl]-1H-pyrazol-3-yl}-1,6-naphthyridin-7-yl)pyridin-2-yl]methanesulfonamide], the negative logarithm of the IC50 (pIC50) on JAK1 is 6.92; on TYK2, 7.77; at JAK2, 6.83; at JAK3, less than 5.00.
With `CS(=O)(=O)c1ccc(-c2cc3ncccc3c(-c3ccn(C4(CC#N)CN(S(C)(=O)=O)C4)n3)n2)cn1` [Example 206, [1-(methylsulfonyl)-3-(3-{7-[6-(methylsulfonyl)pyridin-3-yl]-1,6-naphthyridin-5-yl}-1H-pyrazol-1-yl)azetidin-3-yl]acetonitrile], the pIC50 is 5.60 on JAK1, 7.30 on TYK2, 6.32 at JAK2 and less than 5.00 on JAK3.
Take `CS(=O)(=O)c1ccc(-c2cc3ncccc3c(-c3ccn(C4(CC#N)CC(C#N)C4)n3)n2)cn1` (stereo not drawn) [Example 207, cis-3-(cyanomethyl)-3-(3-{7-[6-(methylsulfonyl)pyridin-3-yl]-1,6-naphthyridin-5-yl}-1H-pyrazol-1-yl)cyclobutanecarbonitrile]: the pIC50 is 6.55 at JAK1, 7.62 on TYK2, 7.25 at JAK2 and 5.03 at JAK3.
On the same counts, the results for `CS(=O)(=O)c1ccc(-c2cc3ncccc3c(-c3ccn([C@]4(CC#N)C[C@@H](C#N)C4)n3)n2)cn1` [Example 208, trans-3-(cyanomethyl)-3-(3-{7-[6-(methylsulfonyl)pyridin-3-yl]-1,6-naphthyridin-5-yl}-1H-pyrazol-1-yl)cyclobutanecarbonitrile] are 5.59, 7.09, 6.44 and less than 5.00.
On the same counts, the results for `CS(=O)(=O)N1CC(CC#N)(n2ccc(-c3nc(-c4ccc(S(N)(=O)=O)nc4)cc4ncccc34)n2)C1` [Example 209, 5-(5-{1-[3-(cyanomethyl)-1-(methylsulfonyl)azetidin-3-yl]-1H-pyrazol-3-yl}-1,6-naphthyridin-7-yl)pyridine-2-sulfonamide] are 5.71, 7.29, 6.36 and less than 5.00.
In the same order, the values of `N#CC[C@]1(n2ccc(-c3nc(-c4ccc(S(N)(=O)=O)nc4)cc4ncccc34)n2)C[C@H](C#N)C1` [Example 210, 5-(5-{1-[trans-3-cyano-1-(cyanomethyl)cyclobutyl]-1H-pyrazol-3-yl}-1,6-naphthyridin-7-yl)pyridine-2-sulfonamide] are 5.82, 7.21, 6.52 and less than 5.00.
In the case of `N#CC[C@]1(n2ccc(-c3nc(-c4ccc(S(N)(=O)=O)nc4)cc4ncccc34)n2)C[C@H](C#N)C1` [Example 211, 5-(5-{1-[cis-3-cyano-1-(cyanomethyl)cyclobutyl]-1H-pyrazol-3-yl}-1,6-naphthyridin-7-yl)pyridine-2-sulfonamide], the negative-log IC50 (pIC50) at JAK1 was 6.74; at TYK2, 7.77; on JAK2 it was 7.41; at JAK3 it was 5.01.
For `N#CC[C@]1(n2ccc(-c3nc(-c4cccc(CO)n4)cc4ncccc34)n2)C[C@@H](C#N)C1` [Example 212, cis-3-(cyanomethyl)-3-(3-{7-[6-(hydroxymethyl)pyridin-2-yl]-1,6-naphthyridin-5-yl}-1H-pyrazol-1-yl)cyclobutanecarbonitrile], the pIC50 at JAK1 is 5.53; on TYK2 it was 6.70; on JAK2 it was 6.05; on JAK3, less than 5.00.

A word on the pIC50: it is −log10 of the IC50, conventionally taken in molar units.
